# US20150045610A1, “METHOD OF MODIFYING SPERMATOGENESIS, SPERMIOGENESIS AND/OR FERTILITY IN MAMMALS” (Monell Chemical Senses Center, priority 2012, published 2015)
# Target: T1, mouse sweet receptor (mT1R2/mT1R3) (Mus musculus, UniProt Q925D8)
# T1 construct: expressed in transfected cells
# T1 sequence (Q925D8 21-858): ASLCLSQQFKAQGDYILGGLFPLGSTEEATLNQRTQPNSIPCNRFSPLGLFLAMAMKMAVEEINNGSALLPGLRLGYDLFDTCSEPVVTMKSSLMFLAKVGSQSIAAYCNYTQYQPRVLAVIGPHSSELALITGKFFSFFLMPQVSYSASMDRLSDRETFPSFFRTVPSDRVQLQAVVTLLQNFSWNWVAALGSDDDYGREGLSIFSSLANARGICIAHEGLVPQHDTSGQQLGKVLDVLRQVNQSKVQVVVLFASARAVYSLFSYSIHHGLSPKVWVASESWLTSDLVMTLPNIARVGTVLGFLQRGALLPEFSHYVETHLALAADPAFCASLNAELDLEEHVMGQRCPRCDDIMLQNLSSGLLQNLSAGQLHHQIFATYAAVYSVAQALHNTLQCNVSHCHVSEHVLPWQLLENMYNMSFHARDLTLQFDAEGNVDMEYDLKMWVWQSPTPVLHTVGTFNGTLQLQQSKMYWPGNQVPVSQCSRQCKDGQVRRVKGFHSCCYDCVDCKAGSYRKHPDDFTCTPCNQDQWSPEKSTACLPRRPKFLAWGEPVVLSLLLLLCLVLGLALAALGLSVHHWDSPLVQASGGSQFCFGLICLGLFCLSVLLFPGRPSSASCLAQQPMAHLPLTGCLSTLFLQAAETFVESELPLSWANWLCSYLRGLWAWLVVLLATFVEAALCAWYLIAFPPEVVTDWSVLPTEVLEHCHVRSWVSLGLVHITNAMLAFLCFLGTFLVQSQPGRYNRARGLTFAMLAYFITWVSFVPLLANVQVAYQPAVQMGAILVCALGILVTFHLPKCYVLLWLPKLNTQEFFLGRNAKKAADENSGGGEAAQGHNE
# T1 sequence (Q925I4 20-843 partner): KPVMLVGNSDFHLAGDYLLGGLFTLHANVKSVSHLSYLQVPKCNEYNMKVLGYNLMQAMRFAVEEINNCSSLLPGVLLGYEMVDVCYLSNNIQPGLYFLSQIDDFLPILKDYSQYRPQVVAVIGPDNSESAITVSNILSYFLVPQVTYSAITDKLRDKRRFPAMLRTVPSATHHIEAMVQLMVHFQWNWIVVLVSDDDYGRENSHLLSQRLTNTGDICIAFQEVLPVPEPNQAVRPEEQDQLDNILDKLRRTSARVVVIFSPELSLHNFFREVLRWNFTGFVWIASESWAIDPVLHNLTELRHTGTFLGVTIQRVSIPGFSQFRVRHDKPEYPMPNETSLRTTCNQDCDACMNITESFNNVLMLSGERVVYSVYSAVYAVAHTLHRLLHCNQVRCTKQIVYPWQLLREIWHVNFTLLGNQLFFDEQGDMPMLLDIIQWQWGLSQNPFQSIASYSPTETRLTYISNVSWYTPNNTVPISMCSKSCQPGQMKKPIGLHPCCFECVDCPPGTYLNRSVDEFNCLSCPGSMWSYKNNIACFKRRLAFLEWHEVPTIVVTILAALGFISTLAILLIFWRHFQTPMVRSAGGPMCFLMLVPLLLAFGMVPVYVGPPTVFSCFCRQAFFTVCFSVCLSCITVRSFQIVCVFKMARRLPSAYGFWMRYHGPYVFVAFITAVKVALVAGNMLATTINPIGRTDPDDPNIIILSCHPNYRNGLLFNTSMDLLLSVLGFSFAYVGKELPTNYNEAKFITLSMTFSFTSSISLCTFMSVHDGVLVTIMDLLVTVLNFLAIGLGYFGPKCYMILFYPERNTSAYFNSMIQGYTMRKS
# Test: sweet receptor inhibition assay, mouse receptor
# Assay type: cell-based
# Source text: The human T1R3 transmembrane domain determines sensitivity to lactisole, phenoxy herbicides, and fibrates. Inhibition of the receptor's response to sucralose occurred only in the presence of the transmembrane domain of human T1R3. […] Chimeric receptors of T1R3 contained the extracellular portion of human or mouse receptor and the transmembrane domain and C-terminal domain from mouse or human receptor: mh indicates the presence of the mouse extracellular domain and human transmembrane domain; hm indicates the presence of the human extracellular domain and mouse transmembrane domain.
smiles,measurement,value
CC(C)(Oc1ccc(Cl)cc1)C(=O)O [clofibric acid],effect on the mouse receptor,no effect
